# Experiments:
# [1] = target: T1, ADP-ribosyl cyclase/cyclic ADP-ribose hydrolase [1-303] (Blood fluke, UniProt Q32TF5); test: NAD glycohydrolase assay; conditions: pH 7.4; 37 °C
# T1 construct: 1-303
# T1 sequence (Q32TF5 whole entry): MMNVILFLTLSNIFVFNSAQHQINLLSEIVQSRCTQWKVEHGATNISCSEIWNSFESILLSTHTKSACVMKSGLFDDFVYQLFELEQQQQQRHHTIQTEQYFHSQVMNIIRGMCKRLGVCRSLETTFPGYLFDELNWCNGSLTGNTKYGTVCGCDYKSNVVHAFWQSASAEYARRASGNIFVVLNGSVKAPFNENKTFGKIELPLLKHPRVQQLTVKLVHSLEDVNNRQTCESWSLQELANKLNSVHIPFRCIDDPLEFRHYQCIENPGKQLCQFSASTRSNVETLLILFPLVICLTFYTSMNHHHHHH
# Experimental: (§1) SmNACE activity and inhibition were measured with a sensitive, continuous, fluorometric assay platform that used 1,N6-ethenonicotinamide adenine dinucleotide (εNAD; Sigma-Aldrich, Inc.) as a substrate. This assay consists of measuring the appearance of the fluorescent εADP-ribose reaction product with excitation (λexc) and emission (λem) wavelengths of 310 and 410 nm, respectively, at 37 °C using the thermostatically controlled Spectramax Gemini XPS fluorescence plate reader (100 uL reaction volume; Molecular Devices, LLC) or the thermostatically controlled RF-5301PC spectrofluorophotometer (1 mL reaction volume; Shimadzu Scientific Instruments). The biochemical assay with 100 ug/mL of recombinant SmNACE was carried out in a 10 mM potassium phosphate buffer, at pH 7.4, containing 0.05% (w/v) emulphogen.
# [2] = target: T2, ADP-ribosyl cyclase/cyclic ADP-ribose hydrolase (Blood fluke, UniProt Q32TF5); test: NAD glycohydrolase assay; conditions: pH 7.4; 37 °C
# T2 sequence (Q32TF5 whole entry): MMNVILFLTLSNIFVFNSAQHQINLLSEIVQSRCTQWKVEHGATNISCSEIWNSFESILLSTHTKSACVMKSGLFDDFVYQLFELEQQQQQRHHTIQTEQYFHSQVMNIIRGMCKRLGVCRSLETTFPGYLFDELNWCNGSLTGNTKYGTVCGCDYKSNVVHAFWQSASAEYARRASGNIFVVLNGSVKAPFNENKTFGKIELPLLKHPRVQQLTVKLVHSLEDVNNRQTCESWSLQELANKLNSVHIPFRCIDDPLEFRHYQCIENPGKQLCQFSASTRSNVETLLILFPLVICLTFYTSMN
# Experimental: as §1
SMILES,IC50 [1] [nM],IC50 [2] [nM]
"Cc1occc1C(=O)N/N=C/c1ccc(O)c(O)c1 [SmNACE inhibitor, 1]",88000,69000
"Cc1occc1C(=O)N/N=C/c1cc(Cl)ccc1O [SmNACE inhibitor, 2]",33,126
"O=C(Nc1nc(=O)c2ccccc2s1)c1ccco1 [SmNACE inhibitor, 3]",2200,> 20000
Cc1ccc2c(c1)C[N]1NC(C3CCOC3C)[O][Zn+]1[O]2 (stereo not drawn) [Zn(II) complex of 2],330,> 200000

# Source: BindingDB's records for doi:10.1021/acschembio.7b00186 (University of Strasburg, 2017)
